Source: publication PMC7774954, “Interactomic affinity profiling by holdup assay: Acetylation and distal residues impact the PDZome-binding specificity of PTEN phosphatase” (PLoS ONE, 2020)
*1 amine or outer side, *2 acyl side, *3 side chain or, on linkers, in order; H or OH if unused. Where a SMILES comes first, the peptide text is derived from it. The star is where a group is joined. X1 = O=C(CCCC[C@@H]1SC[C@@H]2NC(=O)N[C@@H]21)NCCCOCCOCCOCCCN*; Suc = O=C(CCC(=O)[*:2])[*:1]

Assays:
MAGI2 PDZ 2 = target: T1, MAGI2 PDZ 2 (Homo sapiens, UniProt Q86UL8); assay: Holdup assay, MAGI2-2; type: binding; details: for BI: MAGI2-2
T1 construct: made in house; host or cells: E. coli
Procedure: (§1) The holdup assay was performed on a Tecan freedom Evo200 robot with 384-well plates in singlicate for the three 11-mer PTEN variants and the 13-mer PTEN peptide as described in [31, 32]. Briefly, prior to interaction assay, 2.5 μL of streptavidin resin was saturated in each well with 20 μL of biotinylated PBM peptides (42 μM) and then washed twice with an excess of free biotin, while the reference resin was incubated only with biotin. Right before the holdup experiment, the PDZ library was spiked with an internal standard of lysozyme. Then, the biotin- or PBM-saturated resin was incubated, each in a distinct well of a 384-well plate, with complete cell lysates diluted so that the concentration of the tag-PDZ present in the crude extract is adjusted at 4 μM. After a sufficient time to reach complex equilibrium (15 min.), a fast and mild filtration step is performed and the tag-PDZ concentrations were measured by capillary electrophoresis instrument (LabChip GXII, PerkinElmer, Massachusets, USA). Standard markers were used to convert migration time into molecular weight on the LabChip software and inappropriate molecular weight markers were corrected or excluded.
(§2) For filtered data, the BI was extracted with the following equation (Eq 1) that estimates the depleted fraction after superimposition of the sample and reference electropherograms: BI=Iref−Ilig/Iref (1) where Iref and Ilig are the intensities of the tag-PDZ peaks measured, for each PDZ domain/PBM peptide interaction pair, in the biotin reference and the PBM electropherograms, respectively.
(§3) BIs were transformed into dissociation constants (KD) using the following formula: KD=([PDZtot]−BI·[PDZtot])·([PBMtot]−BI·[PDZtot])/BI·[PDZtot] (2) where [PDZtot] and [PBMtot] correspond to the total concentrations of the PDZ domain (usually around 4 μM) and the PBM peptide used during the assay. Since the PBMtot concentration in the resin during the holdup assay parameter may differ from one peptide to another and remains unknown, it is impossible to directly convert BI values into KD constants. We systematically determined the KD constants for a subset of PDZ/PBM pairs by competitive FP. […] For each PBM, the average peptide concentration was calculated after outlier rejection based on the absolute distances from the median as compared to three times the standard deviation (3σ rule), with never more than 2 values rejected.

SDCBP PDZ 1 = target: T2, SDCBP PDZ 1 (Homo sapiens, UniProt O00560); assay: Holdup assay, SDCBP-1; type: binding; details: PDZ domain SDCBP-1
T2 construct: made in house; host or cells: E. coli
T2 sequence (O00560 114-193 limits assumed): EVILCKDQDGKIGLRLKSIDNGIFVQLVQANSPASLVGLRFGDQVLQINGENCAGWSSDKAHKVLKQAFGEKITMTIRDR
Procedure: as §1, §2, §3

ARHGAP21-1 = assay: Holdup assay, ARHGAP21-1; type: binding, human
CARD11-1 = assay: Holdup assay, CARD11-1; type: binding, human
DLG2-1 = DLG2-1 (Homo sapiens, UniProt Q15700); assay: Holdup assay, DLG2-1; type: binding; details: for BI / LogKD: DLG2-1
DVL1-1 = assay: Holdup assay, DVL1-1; type: binding, human
FRMPD2-1 = assay: Holdup assay, FRMPD2-1; type: binding, human
FRMPD3-1 = assay: Holdup assay, FRMPD3-1; type: binding, human
GRIP1-2 = assay: Holdup assay, GRIP1-2; type: binding, human
INADL-5 = assay: Holdup assay, INADL-5; type: binding, human
INADL-9 = assay: Holdup assay, INADL-9; type: binding, human
MPDZ-1 = assay: Holdup assay, MPDZ-1; type: binding, human

T1 sequence (Q86UL8 426-510 limits assumed): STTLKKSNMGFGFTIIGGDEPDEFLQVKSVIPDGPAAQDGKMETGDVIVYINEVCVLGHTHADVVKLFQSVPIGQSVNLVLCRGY

SMILES	BI (MAGI2 PDZ 2)	BI (SDCBP PDZ 1)	BI (ARHGAP21-1)	LogKD (ARHGAP21-1)	BI (CARD11-1)	LogKD (CARD11-1)	BI (DLG2-1)	BI (DVL1-1)	LogKD (DVL1-1)	BI (FRMPD2-1)	LogKD (FRMPD2-1)	BI (FRMPD3-1)	LogKD (FRMPD3-1)	BI (GRIP1-2)	LogKD (GRIP1-2)	BI (INADL-5)	LogKD (INADL-5)	BI (INADL-9)	LogKD (INADL-9)	BI (MPDZ-1)	also measured
CC[C@H](C)[C@H](NC(=O)[C@H](CCC(N)=O)NC(=O)[C@@H](NC(=O)[C@H](Cc1c[nH]cn1)NC(=O)[C@H](CCC(N)=O)NC(=O)[C@H](CC(=O)O)NC(=O)[C@H](CCC(=O)O)NC(=O)[C@H](CC(=O)O)NC(=O)CCC(=O)NCCCOCCOCCOCCCNC(=O)CCCC[C@@H]1SC[C@@H]2NC(=O)N[C@@H]21)[C@@H](C)O)C(=O)N[C@H](C(=O)N[C@@H](CCCCNC(C)=O)C(=O)N[C@H](C(=O)O)C(C)C)[C@@H](C)O [PTEN_Ac]	0.325	-0.057	0.012	3.605	-0.116	3.605	0.211	-0.016	3.605	-0.083	3.605	-0.12	3.605	-0.02	3.605	-0.076	3.605	0.072	3.605	0.074	Kd (MAGI2 PDZ 2): 55.5 µM; Kd (DLG2-1): 102 µM; LogKD (MPDZ-1): 3.605
CC[C@H](C)[C@H](NC(=O)[C@H](CCC(N)=O)NC(=O)[C@@H](NC(=O)[C@H](Cc1c[nH]cn1)NC(=O)[C@H](CCC(N)=O)NC(=O)[C@H](CC(=O)O)NC(=O)[C@H](CCC(=O)O)NC(=O)[C@H](CC(=O)O)NC(=O)CCC(=O)NCCCOCCOCCOCCCNC(=O)CCCC[C@@H]1SC[C@@H]2NC(=O)N[C@@H]21)[C@@H](C)O)C(=O)N[C@H](C(=O)N[C@@H](CCCCN)C(=O)N[C@H](C(=O)O)C(C)C)[C@@H](C)O [PTEN_11]	0.18	-0.001	-0.072	3.519	-0.016	3.519	0.034	-0.007	3.519	-0.044	3.519	-0.078	3.519	0.006	3.519	-0.044	3.519	0.014	3.519	0.039	LogKD (DLG2-1): 3.519; LogKD (MPDZ-1): 3.519
CC[C@H](C)[C@H](NC(=O)[C@H](CCC(N)=O)NC(=O)[C@@H](NC(=O)[C@H](Cc1c[nH]cn1)NC(=O)[C@H](CCC(N)=O)NC(=O)[C@H](CC(=O)O)NC(=O)[C@H](CCC(=O)O)NC(=O)[C@H](CC(=O)O)NC(=O)[C@H](Cc1ccccc1)NC(=O)[C@@H]1CCCN1C(=O)CCC(=O)NCCCOCCOCCOCCCNC(=O)CCCC[C@@H]1SC[C@@H]2NC(=O)N[C@@H]21)[C@@H](C)O)C(=O)N[C@H](C(=O)N[C@@H](CCCCN)C(=O)N[C@H](C(=O)O)C(C)C)[C@@H](C)O [PTEN_13] ({X1-Suc}-PFDEDQHTQITKV-OH)	0.082	0.009	0.028		-0.006		0.035	-0.013		-0.07		-0.096		0.009		-0.039		-0.062		0.011	LogKD (DLG2-1): 3.826
CC[C@H](C)[C@H](NC(=O)[C@H](CCC(N)=O)NC(=O)[C@@H](NC(=O)[C@H](Cc1c[nH]cn1)NC(=O)[C@H](CCC(N)=O)NC(=O)[C@H](CC(=O)O)NC(=O)[C@H](CCC(=O)O)NC(=O)[C@H](CC(=O)O)NC(=O)CCC(=O)NCCCOCCOCCOCCCNC(=O)CCCC[C@@H]1SC[C@@H]2NC(=O)N[C@@H]21)[C@@H](C)O)C(=O)N[C@H](C(=O)N[C@@H](CCCNC(=N)N)C(=O)N[C@H](C(=O)O)C(C)C)[C@@H](C)O [PTEN_KR] ({X1-Suc}-DEDQHTQITRV-OH)	0.443	-0.006	0.074	3.655	-0.097	3.655	0.191	-0.056	3.655	-0.015	3.655	-0.082	3.655	-0.06	3.655	-0.046	3.655	0.068	3.655	-0.039	Kd (MAGI2 PDZ 2): 29.2 µM; LogKD (MPDZ-1): 3.655
